Assay results taken from patent US6004938A, “Inositolglycans having insulin-like action” (Hoescht Aktiengesellschaft, priority 1996, dated 1999).

Experiments:
rat fat cells [1] = experiment: Glucose transport in isolated rat fat cells (insulin-like activity); format: cell-based, rat (Wistar); conditions: rat fat cells, 2-[3H]-deoxyglucose; for Emax: 0.25 h, read-out: Glucose transport % Insmax; for Emax / Glucose transport % Insmax: part of maximum stimulation factor of insulin (set at 100%), 15 min, 37° C.; for EC50: concentration at 50% of the maximum stimulation achieved by the respective compound, read-out: Glucose transport EC50
Method: (§1) This example provides exemplary methods for determining insulin-like activity. The biological activity of the compounds of the formula I according to the invention is determined with the aid of isolated fat cells from the rat.
(§2) The preparation of fat cells from the rat was carried out as follows: White fatty tissue of the epididymis (Wistar rat, 160-180 g, no food restriction) is digested with collagenase and the resulting isolated fat cells are separated off by means of filtration of undigested tissue and washed by flotation several times using Krebs-Ringer-Henseleit buffer (KRH buffer).
[…] After addition of 15 μl of 2-[^3 H]-deoxyglucose (0.3 mM, 0.2 μCi), the incubation is continued at room temperature. After specified times (0-20 min), 100 μl of the test batch are removed and transferred to a reaction vessel (contents 400 μl), in which 250 μl of dinonyl phthalate have been initially introduced. After centrifugation (15,000×g, 1 min), the cells are separated off from the oily layer of the incubation medium underneath the oily layer by cutting the tube at the level of the oily layer and transferring to a scintillation vessel. After addition of 5 ml of water-soluble scintillation fluid, the radioactivity is determined. This total cell-associated radioactivity is corrected for [^3 H]-deoxyglucose which has passively diffused into the cells and is included in the cell interstices by subtraction of a control value (incubation in the presence of the glucose transport inhibitor cytochalasin B). The initial (stimulated) glucose transport rate is linear up to 15 min. The maximum stimulation factor--this is the ratio of the incubation result with insulin to the incubation result without insulin--is set at 100%.
The terms "%Insmax " and "EC50 " are as defined under A) lipogenesis.

rat fat cells [2] = experiment: Lipogenesis in isolated rat fat cells (insulin-like activity); format: cell-based, rat (Wistar); conditions: rat fat cells, 90 min, 37° C.; for EC50: concentration at 50% of the maximum stimulation achieved by the respective compound, read-out: Lipogenesis EC50; for Emax / Lipogenesis % Insmax: part of maximum stimulation factor of insulin (set at 100%), D-[3-3H]glucose; for Emax: read-out: Lipogenesis % Insmax
Method: as §1, §2
This test determines the insulin-stimulable conversion of glucose into toluene-soluble products (triglycerides, phospholipids, fatty acids), which promotes glucose transport and triglyceride (glycerol-3-P synthesis, esterification)/phospholipid/fatty acid synthesis including the insulin signal transmission cascade. At a glucose concentration of 2.5 mM in the test, the esterification (and not the glycerol-3-P synthesis including glucose transport) is rate-determining for the stimulation of lipogenesis.
200 μl (3×10^5 cells/ml) of rat fat cells in KRH buffer are incubated at 37° C. for 90 min with 100 μl of D-[3-^3 H] glucose (25 mM, 0.4 μCi) in the presence or absence of insulin (10 ng/ml) or compound of the formula I according to the invention (final volume 1 ml). By addition of a toluene-soluble scintillation cocktail (10 ml), the cells are disrupted and the lipids are separated off from water-soluble products and the incubation medium. After phase separation, the radioactivity incorporated in lipid products is determined directly without removal of the aqueous phase by scintillation measurement ([^3 H]lipid [dpm×10^-3 ]). A control value (incubation under identical conditions but without cells) is subtracted from this radioactivity. The lipogenesis rate is linear up to 120 min. The maximum stimulation factor--this is the ratio of the incubation result with insulin to the incubation results without insulin--is set at 100%. The percentage data under "%Insmax " are parts of the maximum stimulation factor defined in this way. The term EC50 indicates the concentration of the compound of the formula I at which 50% of the maximum stimulation to be achieved by the respective compound of the formula I is to be observed.

Compound	Emax (rat fat cells [1]) [%]	EC50 (rat fat cells [1]) [µM]	EC50 (rat fat cells [2]; 1.5 h) [µM]	Emax (rat fat cells [2]; 1.5 h) [%]	Glucose transport % Insmax (rat fat cells [1]) [%]	EC50 (rat fat cells [2]) [µM]	Lipogenesis % Insmax (rat fat cells [2]) [%]
N[C@H]1[C@H](O[C@H]2[C@H](O)[C@@H](O)[C@H](OP(=O)(O)O)[C@H](O)[C@@H]2O)O[C@H](CO)[C@@H](O)[C@@H]1O[C@H]1O[C@H](CO[C@H]2O[C@H](CO[PH](=O)O)[C@@H](O)[C@H](O)[C@@H]2O[C@H]2O[C@H](CO[PH](=O)O)[C@@H](O)[C@H](O)[C@@H]2O[C@H]2O[C@H](CO)[C@@H](O)[C@H](O)[C@@H]2O)[C@@H](O)[C@H](O)[C@@H]1O [T, HO-PO(H)O-6Manα1(Manα1-2)-2Manα1(6-PO(H)OH)-6Manα1-3GluNβ1-6(L)inositol-3-phosphate]	30	10	12	72			
N[C@H]1[C@H](O[C@H]2[C@H](O)[C@@H](O)[C@H](OP(=O)(O)O)[C@H](O)[C@@H]2O)O[C@H](CO)[C@@H](O)[C@@H]1O[C@H]1O[C@H](CO[C@H]2O[C@H](CO[PH](=O)O)[C@@H](O)[C@H](O)[C@@H]2O[C@H]2O[C@H](CO)[C@@H](O)[C@H](O)[C@@H]2O[C@H]2O[C@H](CO)[C@@H](O)[C@H](O)[C@@H]2O)[C@@H](O)[C@H](O)[C@@H]1O [U, Manα1-2Manα1-2Manα1(6-PO(H)OH)-6Manα1-3GluNβ1-6(L)inositol-3-phosphate]	34	15	15	80			
N[C@H]1[C@H](O[C@H]2[C@H](O)[C@@H](O)[C@H](OP(=O)(O)O)[C@H](O)[C@@H]2O)O[C@H](CO)[C@@H](O)[C@@H]1O[C@H]1O[C@H](CO[C@H]2O[C@H](COS(=O)(=O)O)[C@@H](O)[C@H](O)[C@@H]2O[C@H]2O[C@H](CO)[C@@H](O)[C@H](O)[C@@H]2O[C@H]2O[C@H](CO)[C@@H](O)[C@H](O)[C@@H]2O)[C@@H](O)[C@H](O)[C@@H]1O [V, Manα1(Manα1-2)-2Manα1(6-HSO3)-6Manα1-3GluNβ1-6(L)inositol-3-phosphate]	48	15	15	83			
N[C@H]1[C@H](O[C@H]2[C@H](O)[C@@H](O)[C@H](OP(=O)(O)O)[C@H](O)[C@@H]2O)O[C@H](CO)[C@@H](O)[C@@H]1O[C@H]1O[C@H](CO[C@H]2O[C@H](COS(=O)(=O)O)[C@@H](O)[C@H](O)[C@@H]2O[C@H]2O[C@H](COS(=O)(=O)O)[C@@H](O)[C@H](O)[C@@H]2O[C@H]2O[C@H](CO)[C@@H](O)[C@H](O)[C@@H]2O)[C@@H](O)[C@H](O)[C@@H]1O [W, HO-SO2 -O-6Manα1(Manα1-2)-2-Manα1(6-HSO3)-6Manα1-3GluNβ1-6(L)inositol-3-phosphate]	42	10	10	86			
H2 N-CO-6Manα1(Manα1-2)-2Manα1-6Manα1-4GluNβ1-6(D)-inositol-1,2-(cyclic)-phosphate [K]		15			23	8	72
HO-PO(H)O-6-Manα1(Manα1-2)-2-Manα1-6Manα-3GluNβ1-6(L)-inositol-3-phosphate		20			18	20	32
HO-PO(H)O-6Manα1(Manα1-2)-2-Manα1-6-Manα1-4GluN(HSO3)β-1-6(L)-inositol-1,2-(cyclic)-phosphate [J]		3			21	8	63
HO-PO(H)O-6Manα1(Manα1-2)-2Manα1-6Manα1-4GluNα1-6(L)inositol-2-phosphate [F]		25			26	15	53
HO-PO(H)O-6Manα1-6-Manα1-6Manα1-6Manα1-3GluNβ1-6(L)inositol-3-phosphate		50			14	20	18
HO-SO2 -6Manα1(Manα1-2)-2Manα1-6Manα1-4GluNβ1-6(D)-inositol-1,2-(cyclic)-phosphate		8			36	7	84
